Source: article PMC4579064 (Toxicology and applied pharmacology, 2015)

Key:
CYP2C19 = CYP2C19 (Homo sapiens, UniProt P33261); test: recombinant CYP activity with fluorogenic substrate; assay type: biochemical
CYP3A4 = CYP3A4 (Homo sapiens, UniProt P08684)
recombinant human CPR [1] = target: T1, recombinant human CPR (Homo sapiens, UniProt P16435); test: CPR-mediated redox cycling, hydroxyl radical formation; assay type: biochemical; conditions: menadione; Fe/EDTA, terephthalate
T1 sequence (P16435 1-677): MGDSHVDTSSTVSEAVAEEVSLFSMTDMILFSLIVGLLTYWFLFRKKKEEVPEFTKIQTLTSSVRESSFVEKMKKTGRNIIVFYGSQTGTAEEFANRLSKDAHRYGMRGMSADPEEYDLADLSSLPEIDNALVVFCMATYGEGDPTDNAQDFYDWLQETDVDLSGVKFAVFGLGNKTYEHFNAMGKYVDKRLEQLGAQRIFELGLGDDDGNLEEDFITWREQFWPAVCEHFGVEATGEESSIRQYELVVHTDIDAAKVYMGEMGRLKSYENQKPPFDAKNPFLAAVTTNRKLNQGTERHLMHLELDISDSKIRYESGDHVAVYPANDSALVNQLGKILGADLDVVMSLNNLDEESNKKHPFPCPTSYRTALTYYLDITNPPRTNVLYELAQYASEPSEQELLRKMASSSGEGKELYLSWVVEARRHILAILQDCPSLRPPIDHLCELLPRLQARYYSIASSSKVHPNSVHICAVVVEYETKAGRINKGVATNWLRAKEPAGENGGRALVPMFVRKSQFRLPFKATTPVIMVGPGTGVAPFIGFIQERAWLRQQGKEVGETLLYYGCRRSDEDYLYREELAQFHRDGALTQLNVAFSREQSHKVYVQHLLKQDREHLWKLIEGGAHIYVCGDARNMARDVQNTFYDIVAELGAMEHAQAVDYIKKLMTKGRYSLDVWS

brain ChE = brain ChE activity in parathion-treated rats; assay type: in vivo, rat; conditions: parathion 8 mg/kg oral, menadione 40 mg/kg ip 20 min after parathion, 60 min
CYP1A2 [2] = target: T2, CYP1A2 (Homo sapiens, UniProt P05177)
T2 sequence (P05177 2-516 limits assumed): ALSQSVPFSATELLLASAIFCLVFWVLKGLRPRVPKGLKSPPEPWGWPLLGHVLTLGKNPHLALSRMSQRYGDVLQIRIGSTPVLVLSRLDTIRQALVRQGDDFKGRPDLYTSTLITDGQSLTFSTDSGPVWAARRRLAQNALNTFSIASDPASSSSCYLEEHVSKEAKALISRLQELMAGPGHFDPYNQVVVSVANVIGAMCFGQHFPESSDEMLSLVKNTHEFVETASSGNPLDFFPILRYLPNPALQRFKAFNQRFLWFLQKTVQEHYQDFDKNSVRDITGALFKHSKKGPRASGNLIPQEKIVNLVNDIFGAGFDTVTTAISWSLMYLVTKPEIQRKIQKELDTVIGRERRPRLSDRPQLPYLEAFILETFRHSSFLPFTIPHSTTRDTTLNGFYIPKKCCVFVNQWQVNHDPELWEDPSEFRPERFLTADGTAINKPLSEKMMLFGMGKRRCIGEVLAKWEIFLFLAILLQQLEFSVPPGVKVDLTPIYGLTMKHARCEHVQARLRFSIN

[3] = assay type: in vivo, rat; conditions: menadione 20 min after parathion; 60 min
CYP1A2 [4] = target: T2, CYP1A2; test: recombinant CYP activity with fluorogenic substrate
recombinant human CPR [5] = target: T1, recombinant human CPR; test: CPR-mediated redox cycling, H2O2 formation; assay type: biochemical; conditions: menadione as redox cycling substrate of CPR; Amplex Red
CYP2E1 = CYP2E1 (Homo sapiens, UniProt P05181); test: recombinant CYP activity with fluorogenic substrate; assay type: biochemical
Sequence of CYP2E1 (P05181 whole entry, one chain of several): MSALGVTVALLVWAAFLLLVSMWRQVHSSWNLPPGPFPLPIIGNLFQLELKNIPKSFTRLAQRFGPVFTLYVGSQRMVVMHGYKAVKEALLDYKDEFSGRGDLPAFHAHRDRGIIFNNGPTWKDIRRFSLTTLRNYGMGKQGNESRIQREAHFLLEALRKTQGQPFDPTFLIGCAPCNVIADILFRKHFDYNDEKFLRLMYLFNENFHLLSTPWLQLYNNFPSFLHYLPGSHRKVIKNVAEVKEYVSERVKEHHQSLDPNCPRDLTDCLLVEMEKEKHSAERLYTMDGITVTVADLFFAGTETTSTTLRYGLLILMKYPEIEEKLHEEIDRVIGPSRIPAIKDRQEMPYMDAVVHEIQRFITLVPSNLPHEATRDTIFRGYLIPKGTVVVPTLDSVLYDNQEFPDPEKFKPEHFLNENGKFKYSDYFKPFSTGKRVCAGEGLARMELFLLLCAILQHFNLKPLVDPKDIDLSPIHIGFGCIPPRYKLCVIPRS

Sequence of CYP3A4 (P08684 2-503 limits assumed): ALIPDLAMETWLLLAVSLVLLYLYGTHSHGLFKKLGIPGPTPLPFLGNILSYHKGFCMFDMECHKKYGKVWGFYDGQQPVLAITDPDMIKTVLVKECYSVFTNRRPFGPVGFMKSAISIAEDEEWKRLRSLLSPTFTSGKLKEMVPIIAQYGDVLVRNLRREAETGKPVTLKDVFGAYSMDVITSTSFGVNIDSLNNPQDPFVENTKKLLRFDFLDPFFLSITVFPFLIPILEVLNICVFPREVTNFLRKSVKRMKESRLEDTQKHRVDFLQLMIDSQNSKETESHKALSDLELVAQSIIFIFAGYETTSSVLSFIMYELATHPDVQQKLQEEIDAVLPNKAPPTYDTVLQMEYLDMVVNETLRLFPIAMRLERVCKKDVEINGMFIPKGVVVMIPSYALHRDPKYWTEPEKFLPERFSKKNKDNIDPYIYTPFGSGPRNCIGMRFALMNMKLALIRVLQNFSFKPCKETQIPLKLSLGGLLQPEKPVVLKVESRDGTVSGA
Sequence of CYP2C19 (P33261 whole entry, one chain of several): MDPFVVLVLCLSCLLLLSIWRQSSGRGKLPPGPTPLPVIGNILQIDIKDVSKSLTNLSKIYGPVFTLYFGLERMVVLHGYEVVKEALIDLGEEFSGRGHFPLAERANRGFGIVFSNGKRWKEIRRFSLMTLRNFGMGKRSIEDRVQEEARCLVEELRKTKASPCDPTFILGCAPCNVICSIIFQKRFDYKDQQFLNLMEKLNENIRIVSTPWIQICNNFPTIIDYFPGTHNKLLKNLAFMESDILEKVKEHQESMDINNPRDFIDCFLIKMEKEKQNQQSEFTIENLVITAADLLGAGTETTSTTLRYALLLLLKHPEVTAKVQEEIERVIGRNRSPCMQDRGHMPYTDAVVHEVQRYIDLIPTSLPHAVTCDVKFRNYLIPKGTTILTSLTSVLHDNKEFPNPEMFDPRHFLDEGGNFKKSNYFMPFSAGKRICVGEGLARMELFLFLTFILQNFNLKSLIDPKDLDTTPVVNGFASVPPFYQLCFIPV

CC1=CC(=O)c2ccccc2C1=O [menadione, 2-methylnaphthalene-1,4-dione]
IC50 (CYP2C19): 8.51 ± 0.38 µM | paraoxon formation (CYP3A4): marked decrease | Vmax for formation of 2-hydroxyterephthalate, a marker of hydroxyl radicals (recombinant human CPR [1]): 1.2 µmol/min/mg CPR protein | forebrain ChE inhibited (brain ChE): 11% | hindbrain ChE inhibited (brain ChE): 17% | paraoxon formation (CYP1A2 [2]): marked decrease | liver levels of parathion [3]: without altering | parathion in blood [3]: striking increase | serum and brain parathion levels [3]: significant increases | IC50 (CYP1A2 [4]): 4.51 ± 0.57 µM | Vmax for H2O2 formation (recombinant human CPR [5]): 4.4 µmol/min/mg CPR protein | IC50 (CYP2E1): 5.58 ± 1.22 µM
